# Patent publication US20210285031A1, “FRET BASED PROTEIN BIOSENSOR FOR DETECTION OF CYCLIC DINUCLEOTIDES” (University of Washington, priority 2020, published 2021)
# pEC50, pIC50, pKd: −log10 of the molar value.
# Experiments:
# BioSTING = target: T1, BioSTING (Mus musculus, UniProt Q3TBT3); assay: DRaCALA binding specificity: excess unlabeled nucleotides competing with [32P] 2′3′-cGAMP; design: species or system murine; details: 500 μM excess unlabeled nucleotide, ~1 nM [32P] 2′3′-cGAMP
# T1 construct: made in house; host or cells: E. coli Rosetta (DE3)pLysS
# T1 sequence (Q3TBT3 with tags, fused parts or gaps): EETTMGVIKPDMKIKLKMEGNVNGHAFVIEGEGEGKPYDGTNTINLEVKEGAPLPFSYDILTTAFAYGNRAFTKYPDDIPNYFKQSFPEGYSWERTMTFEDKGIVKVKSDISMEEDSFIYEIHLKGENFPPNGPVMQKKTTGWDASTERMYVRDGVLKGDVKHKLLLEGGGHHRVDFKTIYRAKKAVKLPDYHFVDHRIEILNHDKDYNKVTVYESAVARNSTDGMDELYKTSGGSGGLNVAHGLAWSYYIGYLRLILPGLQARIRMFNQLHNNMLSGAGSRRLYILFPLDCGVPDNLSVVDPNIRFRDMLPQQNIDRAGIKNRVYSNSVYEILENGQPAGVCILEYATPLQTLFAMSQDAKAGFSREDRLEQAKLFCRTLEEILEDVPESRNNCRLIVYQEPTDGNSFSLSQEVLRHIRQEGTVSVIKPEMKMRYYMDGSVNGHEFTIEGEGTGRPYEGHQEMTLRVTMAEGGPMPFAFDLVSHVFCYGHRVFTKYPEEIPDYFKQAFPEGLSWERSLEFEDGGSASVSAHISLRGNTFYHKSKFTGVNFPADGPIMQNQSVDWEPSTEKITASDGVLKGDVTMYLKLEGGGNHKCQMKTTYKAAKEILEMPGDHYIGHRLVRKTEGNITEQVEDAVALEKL
# [1] = target: T2, BioSTING (mTFP-GGSGG-murine STING CTD (L152-E335)-mKO2 FRET fusion; SEQ ID NO:34, CDN binding domain SEQ ID NO:33) (Mus musculus, UniProt Q3TBT3); assay: DRaCALA radioactive nucleotide binding assay, BioSTING; details: 500 μM unlabeled nucleotide, ~1 nM [32P] 2′3′-cGAMP
# T2 construct: His tag (inferred from Ni-NTA purification and the pET15b vector); made in house; host or cells: E. coli Rosetta (DE3)pLysS
# T2 sequence (Q3TBT3 with tags, fused parts or gaps): T1 sequence (Q3TBT3 with tags, fused parts or gaps)
# Description: (§1) FIGS. 1A-1H. BioSTING Design and Optimization. (1A) Schematic representation of full-length STING (top) and BioSTING with additional GGSGG linker between mTFP and STING-CTD (bottom). Abbreviations are defined as follows: TM (transmembrane region), DD (dimerization domain), CBD (CDN binding domain), and CTT (C-terminal tail). (1B) Overlay and structural alignment of human STING CTD in apo (“blue”) and c-di-GMP bound (“gray”) states (PDB 4F5E and 4F5D, respectively). […] The N and C-terminal helices of the CTD are highlighted with the terminal residues in red and their associated displacement following ligand binding labeled in angstroms. (1C) Model of the FRET increase which occurs upon CDN binding. Generated with Biorender.com. […] In all panels, individual data points of n=2 biological replicates are shown.
# (§2) Finally, the dissociation kinetics were monitored by determining the rate that cold nucleotide could compete off bound radioactive nucleotide. […] [^32P] […] Binding assays were performed in binding buffer [40 mM Tris pH 7.5, 100 mM NaCl, 20 mM MgCl2] at room temperature.
# [2] = target: T3, murine STING CTD (mSTING-CTD; CDN binding domain SEQ ID NO:33) (Mus musculus, UniProt Q3TBT3); assay: DRaCALA radioactive nucleotide binding assay, STING-CTD; details: 500 μM unlabeled nucleotide, ~1 nM [32P] 2′3′-cGAMP
# T3 construct: 6xHis; made in house; host or cells: E. coli Rosetta (DE3)pLysS
# T3 sequence (Q3TBT3 134-378 limits assumed): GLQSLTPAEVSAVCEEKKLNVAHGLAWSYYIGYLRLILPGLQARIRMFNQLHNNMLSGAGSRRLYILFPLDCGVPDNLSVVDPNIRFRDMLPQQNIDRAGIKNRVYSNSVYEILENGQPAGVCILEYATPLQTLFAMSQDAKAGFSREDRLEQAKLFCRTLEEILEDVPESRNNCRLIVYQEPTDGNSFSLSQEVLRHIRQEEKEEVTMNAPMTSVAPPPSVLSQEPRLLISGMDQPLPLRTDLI
# Description: as §1
# FIGS. 6A and 6B. BioSTING development and characterization.
# as §2
# [3] = target: T4, CDA5 variant Y34A (parent CDA5, Lmo0553 Bateman domain) (Listeria monocytogenes, UniProt Q8Y9H5, Y34A); assay: DRaCALA binding assay, CDA5 Y34A
# Method: (§3) It was hypothesized that by replacing the stabilizing tyrosine ring with an alanine (Y34A), c-di-AMP binding would be minimized in a manner unlikely to disrupt protein stability. […] Next, increasing concentrations of c-di-AMP were added to purified CDA5 and Y34A CDA5 and analyzed by plate reader assay for FRET response.
# [4] = target: T5, CDA5 (eCFP-Lmo0553 Bateman domain (truncated at N-127)-eYFP FRET fusion; SEQ ID NO:36, Bateman domain SEQ ID NO:35) (Listeria monocytogenes, UniProt Q8Y9H5); assay: DRaCALA radioactive nucleotide binding assay, CDA5
# [5] = target: T4, CDA5 variant Y34A (parent CDA5, Lmo0553 Bateman domain); assay: In vitro FRET measurement, CDA5 Y34A; details: increasing concentrations of c-di-AMP
# Method: as §3
# [6] = target: T5, CDA5 (eCFP-Lmo0553 Bateman domain (truncated at N-127)-eYFP FRET fusion; SEQ ID NO:36, Bateman domain SEQ ID NO:35); assay: In vitro FRET measurement, CDA5
# STING = details: background; cited from earlier work
# [7] = target: Listeria monocytogenes Lmo0553, full length (Listeria monocytogenes, UniProt Q8Y9H5); assay: DRaCALA radioactive nucleotide binding assay, full length Lmo0553
# [8] = target: T6, full length Lmo0553 fused to eCFP (N terminus) and eYFP (C terminus) (Listeria monocytogenes, UniProt Q8Y9H5); assay: FRET response, full length Lmo0553 fusion; type: biochemical
# T6 construct: recombinant, purified
# Description: To leverage these structural rearrangements, the FRET pair eCFP and eYFP were respectively fused to the N and C termini of full length Lmo0553. […] Additional engineering may have allowed for the generation of a FRET biosensor utilizing full length Lmo0553, but without a response to optimize, these efforts would have been arduous and potentially unsuccessful.
# cGAS = details: literature value (Pfizer); read-out: reported IC50; cited from earlier work
# [9] = target: T7, cGAS (recombinant SUMO-mcGAS) (Mus musculus, UniProt Q8C6L5); assay: cGAS activity assay measuring 2′3′-cGAMP production using BioSTING; type: biochemical; details: fixed cGAS; 250 μM ATP, 250 μM GTP, 50 ng ISD; 37° C.
# T7 construct: product read by BioSTING
# T7 sequence (Q8C6L5 whole entry): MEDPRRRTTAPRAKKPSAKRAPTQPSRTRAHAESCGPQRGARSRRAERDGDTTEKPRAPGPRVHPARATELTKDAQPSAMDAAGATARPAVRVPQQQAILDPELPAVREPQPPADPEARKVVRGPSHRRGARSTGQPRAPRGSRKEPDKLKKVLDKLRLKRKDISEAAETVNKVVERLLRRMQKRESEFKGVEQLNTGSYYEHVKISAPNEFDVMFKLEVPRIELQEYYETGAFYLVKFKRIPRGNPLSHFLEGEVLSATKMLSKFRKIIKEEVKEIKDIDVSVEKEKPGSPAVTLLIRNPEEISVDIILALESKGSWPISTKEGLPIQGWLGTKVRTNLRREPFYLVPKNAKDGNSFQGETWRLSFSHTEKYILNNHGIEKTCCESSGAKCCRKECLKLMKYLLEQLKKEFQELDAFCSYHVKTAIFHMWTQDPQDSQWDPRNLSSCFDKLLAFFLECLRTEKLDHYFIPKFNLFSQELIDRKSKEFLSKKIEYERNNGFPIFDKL
# Method: FIGS. 2A-2F. Real time measurement of CDN synthesis and determination of CDN levels from cellular extracts. […]. In panels (2B)-(2D) and (2F), data are presented as mean±s.d. of n=3 (2B, 2F) or n=8 (2C, 2D) biological replicates.
# BioSTING FRET assays are carried out in a 96-well format using a fluorescent plate reader making it amenable to in vitro high throughput screening efforts (FIG. 7B). […]. In addition to screening for modulators of CDN synthase activity, BioSTING could also potentially be used to screen directly for STING agonists and antagonists.
# Enzyme assays were initiated by the addition of 1 mM ATP, 1 mM GTP and 1 μg ISD (FIGS. 2B, 7A, and 7B) or by the addition of 250 μM ATP, 250 μM GTP, and 50 ng ISD (FIGS. 2C, 2D, and 7C).
# [10] = excess (500 μM) unlabeled c-di-AMP, DRaCALA
smiles,measurement,setting,value
Nc1nc2c(ncn2[C@@H]2O[C@@H]3COP(=O)(O)O[C@H]3[C@H]2O)c(=O)[nH]1 [cGMP],competing off bound [32P] 2′3′-cGAMP,BioSTING,not
same,competition of bound [32P] 2′3′-cGAMP by unlabeled nucleotide,[1],"not ATP, GTP, cAMP, or cGMP could compete off"
same,competition of bound [32P] 2′3′-cGAMP by unlabeled nucleotide,[2],"not ATP, GTP, cAMP, or cGMP could compete off"
Nc1ncnc2c1ncn2[C@@H]1O[C@H](COP(=O)(O)OP(=O)(O)OP(=O)(O)O)[C@@H](O)[C@H]1O [ATP],competing off bound [32P] 2′3′-cGAMP,BioSTING,not
same,competition of bound [32P] 2′3′-cGAMP by unlabeled nucleotide,[1],"not ATP, GTP, cAMP, or cGMP could compete off"
same,competition of bound [32P] 2′3′-cGAMP by unlabeled nucleotide,[2],"not ATP, GTP, cAMP, or cGMP could compete off"
"Nc1ncnc2c1ncn2[C@@H]1O[C@@H]2COP(=O)(O)O[C@H]3[C@@H](O)[C@H](n4cnc5c(N)ncnc54)O[C@@H]3COP(=O)(O)O[C@H]2[C@H]1O [3′3′-c-di-AMP, 3′3′-cyclic di-adenosine monophosphate]",c-di-AMP binding,[3],c-di-AMP bound to CDA5 but not the Y34A CDA5 point mutant control
same,pKd,[4],5.23
same,competition of bound [32P] c-di-AMP by unlabeled nucleotide,[4],only unlabeled c-di-AMP
same,koff (time for competition by unlabeled c-di-AMP),[4]; [10],completely within two seconds
same,FRET increase upon the addition of c-di-AMP,[5],CDA5 but not Y34A CDA5 produced a robust FRET increase
same,pEC50,[6],6.42
same,kon (less than the sampling limit),[6]; FRET responses stable immediately upon addition of c-di-AMP,< 10 s
same,Emax,[6]; read-out: FRET increase,23%
same,affinity for STING relative to 2′3′-cGAMP,STING,markedly reduced affinities
same,pKd,[7],5.32
same,competition of bound [32P] c-di-AMP by unlabeled nucleotide,[7],only unlabeled c-di-AMP
same,koff (time for competition by unlabeled c-di-AMP),[7]; [10],completely within two seconds
same,FRET response upon the addition of c-di-AMP,[8],no FRET response was observed
O=C(NC1CCCCC1C(=O)O)c1cnn2c(O)cc(-c3ccccc3)nc12 (centres unmarked) [PF-06928215],pIC50,cGAS,5.30
same,pIC50,[9],~4.92
"Nc1nc2c(ncn2[C@@H]2O[C@@H]3COP(=O)(O)O[C@H]4[C@@H](O)[C@H](n5cnc6c(=O)[nH]c(N)nc65)O[C@@H]4COP(=O)(O)O[C@H]3[C@H]2O)c(=O)[nH]1 [c-di-GMP, 3′,3′-cyclic di-GMP]",affinity for STING relative to 2′3′-cGAMP,STING,markedly reduced affinities
Nc1nc2c(ncn2[C@@H]2O[C@H](COP(=O)(O)OP(=O)(O)OP(=O)(O)O)[C@@H](O)[C@H]2O)c(=O)[nH]1 [GTP],competing off bound [32P] 2′3′-cGAMP,BioSTING,not
same,competition of bound [32P] 2′3′-cGAMP by unlabeled nucleotide,[1],"not ATP, GTP, cAMP, or cGMP could compete off"
same,competition of bound [32P] 2′3′-cGAMP by unlabeled nucleotide,[2],"not ATP, GTP, cAMP, or cGMP could compete off"
"Nc1nc2c(ncn2[C@@H]2O[C@@H]3COP(=O)(O)O[C@H]4[C@@H](O)[C@H](n5cnc6c(N)ncnc65)O[C@@H]4COP(=O)(O)O[C@H]3[C@H]2O)c(=O)[nH]1 [3′3′-cGAMP, 3′,3′-cyclic GMP AMP]",affinity for STING relative to 2′3′-cGAMP,STING,markedly reduced affinities
